{"source": "patent US20160184201A1", "about": "“ANTIPERSPIRANT/DEODORANT COMPOSITIONS” (COLGATE-PALMOLIVE COMPANY, priority 2013, published 2016)", "tested_on": "Staphyloccus haemolyticus", "assay": "Antimicrobial activity: minimum inhibition concentration by two-fold serial dilution in a 96-well plate (optical density, confirmed by agar streak)", "assay_type": "cell-based", "conditions": "for bacterial growth in the first well of the 96-well plate: 1% L-Lactide solution", "procedure": "1. Formulate a 1% or 10000 ppm and 3% or 30000 ppm solution of the neat L-Lactide active tested by weight and vortex until homogeneous in a 50 mL centrifuge tube. 2. Place solutions in shaking incubator at 200 rpm and 37° C. for 1 hour. 3. Repeat the formulation of the solution and shaking incubation for 4 hour and 24 hour time points. 4. Label 96-well plate to indicate positive and negative controls and the active tested against an odor causing bacteria, Staphyloccus haemolyticus. 5. Using a 96-well plate, pipette 100 uL of Tryptic Soy Broth (TSB) into all of the wells. 6. In the first well, add 100 uL of the active solution or desired solvent for positive and negative controls to achieve a total of 200 uL in the first column of wells. 7. Set the multi-channel pipette to 100 uL and begin mixing the contents in the first column of wells and transfer 100 uL of the mixture into each successive well creating two-fold serial dilutions. 8. Repeat until the 12th column is reached making sure to dispose the 100 uL from the last well leaving 100 uL in all of the wells. 9. In the negative control wells add 100 uL of Phosphate Buffered Saline (PBS). Add 100 uL of bacteria (optical density equals to 0.1) to all other wells. 10. Incubate 96-well plate overnight at 37° C. or at room temperature for 48 hours. 11. Minimum inhibition concentration of the sample is determined by measuring the optical density of the 96 plate.", "data": [{"smiles": "CC1OC(=O)C(C)OC1=O", "note": "[L-Lactide, 3,6-dimethyl-1,4-dioxane-2,5-dione]", "values": [{"measurement": "bacterial growth in the first well of the 96-well plate", "setting": "1 hour of shaking incubation (200 rpm, 37° C.), first well, 4-fold dilution of the sample", "result": "some bacterial growth"}, {"measurement": "bacterial growth in the first well of the 96-well plate", "setting": "4 hours of incubation, same first well, 4-fold dilution", "result": "complete bacteria kill"}, {"measurement": "bacterial growth in wells 1 and 2 of the 96-well plate", "setting": "3% L-Lactide solution, 1 hour of shaking incubation, dilution factor 4 and 8 fold", "result": "no bacterial growth"}, {"measurement": "bacterial growth in the third well of the 96-well plate", "setting": "3% L-Lactide solution, 24 hours of shaking incubation, third well, dilution 16 fold", "result": "bacteria growth is prevented"}]}]}
